Among the data in patent US7728146B2, “Enzyme inhibitors” (Probiodrug AG, priority 2006, dated 2010) are IC50 values, retold here.

The target of one assay is DP IV (Homo sapiens, UniProt P27487). The experiment in a line: DP IV inhibition IC50, parallel-synthesis compounds tested directly following synthesis (without purification). Type of assay: biochemical. Set-up: IC50 DP4; other: tested directly following parallel synthesis, without purification; compounds of formula (Ib) from parallel synthesis, tested directly following synthesis. Particulars: DP IV inhibition; compounds of formula (Ib) from parallel synthesis, tested directly following synthesis (without purification); read-out: IC50. The protocol: Compounds were immediately tested regarding their activity as DP IV inhibitors.
Substances are screened for inhibition of dipeptidyl peptidase (DP IV) by their ability to inhibit the hydrolysis of the DP IV specific substrate Glycyl-Prolyl-4-Nitroanilide (Gly-Pro-pNA). All compounds are diluted in DMSO and IC50 will be determined with 11 serial dilutions (1:2) starting with an final concentration of 100 μM. The final DMSO concentration in the assay is 5% (v/v). The method was automated using a Tecan Genesis Freedom liquid handler and a Genius Pro (Tecan) microplate reader.
DP IV from porcine kidney (pDP IV) or recombinant human DP IV (rhDP IV) is diluted in HEPES buffer to a final activity of approximately 40-50 μU*ml^−1. The DP IV is stored in a cooling rack (4° C.) on the liquid handler.
The assay may becarried out at room temperature using Freedom liquid handler connected with a Genios Pro microplate reader. Each sample is measured in duplicate. Each sample stock solution is prediluted with DMSO in a ratio of 1:5 in a polypropylen 96-well plate. From this predilution 10 serial (1:2) dilutions in DMSO are prepared. 13.5 μl of the 11 DMSO dilutions and DMSO alone are transferred to the measurement microplate (duplicates) and 86.5 μl water, 100 μl HEPES buffer and 50 μl substrate solution are added to each well. The enzymatic reaction is started by addition of 20 μl enzyme solution to each well, and then the microplate is immediately transferred to the microplate reader.
After short mixing (20 s) the release of 4-Nitroanilin (pNA) is monitored at 405 nm for 30 cycles (approx. 18 min).
Post assay calculations are done by the Magellan (Tecan) and Graphit Software. The linear slopes are calculated for each well and averaged for the duplicates. The residue activities are calculated in relation to a sample containing only solvent instead of inhibitor and expressed in %. Residue activities are plotted against the log of inhibitor concentrations and IC50 is calculated by an 4-parameter fitting ranging from 0 to 100%.
Broadly, the IC50 is the concentration that gives 50% inhibition. `CC(N)c1c(-c2ccc(Cl)cc2Cl)ncn1Cc1ccc(F)c(F)c1` (stereo not shown) [68b, 1-[5-(2,4-Dichloro-phenyl)-3-(3,4-difluoro-benzyl)-3H-imidazol-4-yl]-ethylamine]: the IC50 was found to be 26.2 µM.
For the molecule `COc1ccc(Cn2cnc(-c3ccc(Cl)cc3Cl)c2C(C)N)cc1` (stereo not shown) [43b, 1-[5-(2,4-Dichloro-phenyl)-3-(4-methoxy-benzyl)-3H-imidazol-4-yl]-ethylamine], the IC50 stood at 27.1 µM.
`C[C@H](N)c1c(-c2ccc(Cl)cc2Cl)ncn1CCc1c[nH]c2cc(Cl)ccc12` [101b, (S)-1-[3-[2-(6-Chloro-1H-indol-3-yl)-ethyl]-5-(2,4-dichloro-phenyl)-3H-imidazol-4-yl]-ethylamine]: the IC50 stood at 47.8 µM.
Take `NCc1c(-c2ccc(Cl)cc2Cl)ncn1CCc1ccc(F)cc1` [55b, C-{5-(2,4-Dichloro-phenyl)-3-[2-(4-fluoro-phenyl)-ethyl]-3H-imidazol-4-yl}-methylamine]: the IC50 is 3.7 µM.
In the case of `CC(N)c1c(-c2ccc(Cl)cc2Cl)ncn1Cc1ccccn1` (stereo not shown) [96b, 1-[5-(2,4-Dichloro-phenyl)-3-pyridin-2-ylmethyl-3H-imidazol-4-yl]-ethylamine], the IC50 amounted to 14.5 µM.
On the same count and under the same terms, the same measure for `CCCCCCn1cnc(-c2ccc(Cl)cc2Cl)c1CN` [84b, C-[5-(2,4-Dichloro-phenyl)-3-hexyl-3H-imidazol-4-yl]-methylamine]: 1 µM; for `NCc1c(-c2ccc(Cl)cc2Cl)ncn1CCc1ccc(Cl)cc1` [102b, C-[3-[2-(4-Chloro-phenyl)-ethyl]-5-(2,4-dichloro-phenyl)-3H-imidazol-4-yl]-methylamine]: 19 µM; for `NCc1c(-c2ccc(Cl)cc2Cl)ncn1Cc1ccc(Br)cc1` [25b, C-[3-(4-Bromo-benzyl)-5-(2,4-dichloro-phenyl)-3H-imidazol-4-yl]-methylamine]: 6.4 µM.
Still for that read-out and setting: to `CCCCCCn1cnc(-c2ccc(Cl)cc2Cl)c1C(C)N` (stereo not shown) [61b, 1-[5-(2,4-Dichloro-phenyl)-3-hexyl-3H-imidazol-4-yl]-ethylamine] belongs 40.6 µM; to `NCc1c(-c2ccc(Cl)cc2Cl)ncn1CCNC1CCCCC1` [4b, {2-[5-Aminomethyl-4-(2,4-dichloro-phenyl)-imidazol-1-yl]-ethyl}-cyclohexyl-amine], 10 µM.
Still for that read-out and setting: to `NCc1c(-c2ccc(Cl)cc2Cl)ncn1Cc1cccc(F)c1` [Example 28b, C-[5-(2,4-dichloro-phenyl)-3-(3-fluoro-benzyl)-3H-imidazol-4-yl]-methylamine] belongs 1.9 µM.
`COc1ccc(Cn2cnc(-c3ccc(Cl)cc3Cl)c2CN)cc1` [35b, C-[5-(2,4-Dichloro-phenyl)-3-(4-methoxy-benzyl)-3H-imidazol-4-yl]-methylamine]: the IC50 is 11.8 µM.
Still for that read-out and setting: the same measure for `CC(N)c1c(-c2ccc(Cl)cc2Cl)ncn1CCCN1CCCC1=O` (stereo not shown) [22b, 1-{3-[5-(1-Amino-ethyl)-4-(2,4-dichloro-phenyl)-imidazol-1-yl]-propyl}-pyrrolidin-2-one]: 30.7 µM; for `Cc1ccc(Cn2cnc(-c3ccc(Cl)cc3Cl)c2CN)cc1` [66b, C-[5-(2,4-Dichloro-phenyl)-3-(4-methyl-benzyl)-3H-imidazol-4-yl]-methylamine]: 11.8 µM.
Still for that read-out and setting: to `NCc1c(-c2ccc(Cl)cc2Cl)ncn1Cc1ccc(C(F)(F)F)cc1` [98b, C-[5-(2,4-Dichloro-phenyl)-3-(4-trifluoromethyl-benzyl)-3H-imidazol-4-yl]-methylamine] belongs 27.1 µM.

Staying with this assay, now noted: tested directly following parallel synthesis, without purification; read-out: IC50 DP4.
Take `NCc1c(-c2ccc(F)cc2Cl)ncn1Cc1cc(Br)ccc1F` [Example 12a, C-[3-(5-Bromo-2-fluoro-benzyl)-5-(2-chloro-4-fluoro-phenyl)-3H-imid-azol-4-yl]-methyl-amine]: the IC50 was 32.5 µM.
Still for that read-out and setting: to `NCc1c(-c2ccc(F)cc2Cl)ncn1Cc1ccccc1Cl` [Example 3a, C-[3-(2-Chloro-benzyl)-5-(2-chlo-ro-4-fluoro-phenyl)-3H-imid-azol-4-yl]-methyl-amine] belongs 18.1 µM; to `NCc1c(-c2ccc(Cl)cc2Cl)ncn1Cc1ccc(Cl)cc1Cl` [Example 57a, C-[3-(2,4-Dichloro-benzyl)-5-(2,4-dichloro-phenyl)-3H-imid-azol-4-yl]-methyl-amine], 9.1 µM; to `Cc1ccccc1Cn1cnc(-c2ccc(F)cc2Cl)c1CN` [Example 14a, C-[5-(2-Chloro-4-fluoro-phenyl)-3-(2-methyl-benzyl)-3H-imid-azol-4-yl]-methyl-amine], 19.9 µM.
The same measure, in the same setting: the same measure for `COc1cccc(Cn2cnc(-c3ccc(F)cc3Cl)c2CN)c1` [Example 9a, C-[5-(2-Chloro-4-fluoro-phenyl)-3-(3-methoxy-benzyl)-3H-imid-azol-4-yl]-methyl-amine]: 16.3 µM; for `NCc1c(-c2ccc(F)cc2Cl)ncn1Cc1cc(F)ccc1F` [Example 27a, C-[5-(2-Chloro-4-fluoro-phenyl)-3-(2,5-difluoro-benzyl)-3H-imid-azol-4-yl]-methyl-amine]: 22.6 µM.
The same measure, in the same setting: to `NCc1c(-c2ccc(F)cc2F)ncn1Cc1cccc(C(F)(F)F)c1` [Example 75a, C-[5-(2,4-Difluoro-phenyl)-3-(3-tri-fluoromethyl-benzyl)-3H-imid-azol-4-yl]-methyl-amine] belongs 28.9 µM.
Turning to `NCc1c(-c2ccc(F)cc2F)ncn1Cc1ccc2c(c1)OCO2` [Example 81a, C-[3-Ben-zo[1,3]di-oxol-5-yl-methyl-5-(2,4-difluoro-phenyl)-3H-imid-azol-4-yl]-methyl-amine], the IC50 came to 46.9 µM.
The same measure, in the same setting: to `NCc1c(-c2ccc(F)cc2F)ncn1Cc1cc(Br)ccc1F` [Example 79a, C-[3-(5-Bro-mo-2-fluoro-benzyl)-5-(2,4-difluoro-phenyl)-3H-imid-azol-4-yl]-methyl-amine] belongs 32.5 µM.
On the same count and under the same terms, the same measure for `Cc1ccc(Cn2cnc(-c3ccc(Cl)cc3Cl)c2CN)cc1` [Example 56a, C-[5-(2,4-Dichloro-phenyl)-3-(4-methyl-benzyl)-3H-imid-azol-4-yl]-methyl-amine]: 2.8 µM.
Still for that read-out and setting: the same measure for `Cc1ccc(Cn2cnc(-c3ccc(F)cc3Cl)c2CN)o1` [Example 4a, C-[5-(2-Chloro-4-fluo-ro-phenyl)-3-(5-meth-yl-furan-2-yl-methyl)-3H-imid-azol-4-yl]-methyl-amine]: 34.3 µM; for `NCc1c(-c2ccc(F)cc2F)ncn1Cc1ccccc1OC(F)(F)F` [Example 84a, C-[5-(2,4-Difluoro-phenyl)-3-(2-trifluoromethoxy-benzyl)-3H-imidazol-4-yl]-methylamine]: 9.1 µM; for `NCc1c(-c2ccc(F)cc2F)ncn1Cc1ccco1` [Example 72a, C-[5-(2,4-Difluoro-phenyl)-3-furan-2-ylmethyl-3H-imidazol-4-yl]-methylamine]: 11.8 µM.
For `NCc1c(-c2ccc(Cl)cc2Cl)ncn1Cc1c(F)cccc1F` [Example 37a, C-[5-(2,4-Dichloro-phenyl)-3-(2,6-difluoro-benzyl)-3H-imid-azol-4-yl]-methyl-amine], the IC50 was 4.6 µM.
In the case of `CCn1cnc(-c2ccc(Cl)cc2Cl)c1CN` [Example 59a, C-[5-(2,4-Dichloro-phenyl)-3-eth-yl-3H-imid-azol-4-yl]-methyl-amine], the IC50 stood at 25.3 µM.
On the same count and under the same terms, the same measure for `NCc1c(-c2ccc(Cl)cc2Cl)ncn1Cc1ccccn1` [Example 65a, C-[5-(2,4-Dichloro-phenyl)-3-pyri-din-2-yl-methyl-3H-imid-azol-4-yl]-methyl-amine]: 1.9 µM.
